Experimental data taken from patent publication US20070203749A1 (priority 2005, published 2007).
Like-named read-outs stand apart in the source and are kept apart here.

How the values were obtained:
XIAP-Bir3 = XIAP-Bir3 (Homo sapiens, UniProt P98170); assay: Fluorescence polarization binding assay, purified XIAP BIR-3 domain
Experimental: (§1) Binding constants were measured using fluorescence polarization as described in Zancta Nikolovska-Coleska et al., (2004) Analytical biochemistry, 332, 261-273. Briefly, various known concentrations of each test peptide were mixed with 5 nM fluorescently labeled peptide (AbuRPF-K(5-Fam)—NH2; FP peptide) and 40 nM of XIAP-Bir3, cIAP-1-Bir3 or cIAP-2-Bir3 in 100 μl of 0.1M Potassium Phosphate buffer, pH 7.5 containing 100 μg/ml bovine γ-globulin. These mixtures were incubated for 15 min at room temperature (approximately 22° C.). Following incubation, the polarization values (mP) were measured on a Victor^2V using a 485 nm excitation filter and a 535 nm emission filter. Kj(app) values were determined from the plot using nonlinear least-squares analysis using GraphPad Prism (Table 8).
(§2) In any event, binding to cIAP-1 and cIAP-2 or other IAPs can be determined using standard binding affinity assays, as illustrated above. […] We have utilized the specificity of this IAP binding motif in a fluorescence polarization assay to measure the binding affinities for cIAP-1 and cIAP-2 Antagonists. The fluorescence polarization assay consists of FP peptide, and the recombinant BIR3 domain of the XIAP protein. The FP peptide and mimics of the […] compete for binding to the BIR3 protein. […] If a peptide, peptidomimetic, or other small molecule being tested is a competitor, then it succeeds in displacing the FP peptide, resulting in a low mP value. Molecules that compete with the FP l peptide can be titrated and IC50 values determined (GraphPad Prism nonlinear regression curve-fitting program) by plotting mp values as the direct measure of fraction bound vs, the log of the compound concentration.

cIAP-1-Bir3 = cIAP-1-Bir3 (Homo sapiens, UniProt Q13490); assay: Fluorescence polarization binding assay, purified cIAP-1 BIR-3 domain; details: for Kd: BIR-3 domain; for binding to cIAP-1 and cIAP-2 relative to XIAP (fold more tightly): ratio of binding constants vs XIAP
Sequence of cIAP-1-Bir3 (Q13490 253-363 limits assumed): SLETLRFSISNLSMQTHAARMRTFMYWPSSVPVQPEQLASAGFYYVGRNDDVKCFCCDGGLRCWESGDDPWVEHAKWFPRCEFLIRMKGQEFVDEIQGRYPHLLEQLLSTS
Experimental: as §1, §2

cIAP-2-Bir3 = cIAP-2-Bir3 (Homo sapiens, UniProt Q13489); assay: Fluorescence polarization binding assay, purified cIAP-2 BIR-3 domain
Sequence of cIAP-2-Bir3 (Q13489 238-349 limits assumed): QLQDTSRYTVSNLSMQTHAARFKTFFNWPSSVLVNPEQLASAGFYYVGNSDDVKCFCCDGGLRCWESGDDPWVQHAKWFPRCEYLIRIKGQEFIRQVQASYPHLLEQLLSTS
Experimental: as §1, §2

SK-OV-3 cells = assay: MTT assay, growth inhibition of ovarian cancer cell line SK-OV-3; assay type: cell-based; details: Homo sapiens; for EC50: SK-OV-3, SKOV-3 cells, Table 10; for CC50: SK-OV-3 cells, 72 hrs, concentration giving 50% cell survival, Table 8
Experimental: The MTT assay was described in Hansen, M. B., Nielson, S. E., and Berg, K. (1989) J. Immunol Methods 119, 203-210 and incorporated herein by reference in its entirety. Briefly, SK-OV-3 cells were seeded in 96-well plates in McCoy's medium containing 10% fetal bovine serum albumin (10,000 per well) and incubated overnight at 37° C. […] This incubation time was optimal for measuring inhibitory effects of different analogs. 50 microliters of 5 mg/mL MTT reagent was added to each well, and the plates were incubated at 37° C. for 3 hours. At the end of the incubation period, 50 microliters of DMSO was added to each well to dissolve cells, and the optical density (OD) of the wells was measured with a microplate reader (Victor^2 1420, Wallac, Finland) at 535 nm. Cell survival (CS) was calculated using the following equation: CS=(OD treated well/mean OD control wells)×100%
The EC50 (Table 1). defined as the drug concentration that results in 50% CS, was derived by calculating the point where the dose-response curve crosses the 50% CS point using GraphPad Prism.

OVCAR-3 cells = assay: Synergistic toxicity with SN-38 (topoisomerase I inhibitor); assay type: cell-based; details: compared between Compounds N and H
cIAP-1 = target: T1, cIAP-1 (Homo sapiens, UniProt Q13490); assay: Effect of proteasome inhibitor on IAP degradation, western blot, cIAP-1; assay type: cell-based; details: SK-OV-3 cells, 20 hrs, absence of bortezomib
T1 construct: endogenous in cells; host or cells: SK-OV-3
T1 sequence (Q13490 whole entry): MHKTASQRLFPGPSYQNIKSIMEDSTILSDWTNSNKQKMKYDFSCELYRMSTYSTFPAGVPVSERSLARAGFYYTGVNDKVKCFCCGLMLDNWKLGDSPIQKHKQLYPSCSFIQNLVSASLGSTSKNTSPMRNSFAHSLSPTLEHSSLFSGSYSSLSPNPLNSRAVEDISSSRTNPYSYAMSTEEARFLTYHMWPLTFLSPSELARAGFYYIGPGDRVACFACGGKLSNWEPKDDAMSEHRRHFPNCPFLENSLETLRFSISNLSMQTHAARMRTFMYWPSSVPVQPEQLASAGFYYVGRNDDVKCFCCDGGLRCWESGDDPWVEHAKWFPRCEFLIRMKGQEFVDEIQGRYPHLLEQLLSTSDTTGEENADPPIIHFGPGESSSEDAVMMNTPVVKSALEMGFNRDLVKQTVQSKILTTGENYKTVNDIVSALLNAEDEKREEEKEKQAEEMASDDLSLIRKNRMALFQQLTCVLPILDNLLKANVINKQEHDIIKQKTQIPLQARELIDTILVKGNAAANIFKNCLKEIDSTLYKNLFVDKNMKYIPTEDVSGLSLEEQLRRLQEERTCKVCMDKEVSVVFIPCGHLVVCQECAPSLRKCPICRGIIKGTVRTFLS
Experimental: (§3) Cells were harvested after trypsinization by centrifuging at 2000 rpm for 10 min. The cell pellet was washed with PBS and lysed with RIPA to disrupt the cell membrane. The lysate after centrifugation was loaded onto a 5-20% polyacrylamide gel to separate the proteins. A Western blot was carried out using standard techniques and probed for XIAP and cIAP-1 proteins as described above.
(§4) Similarly, IAP degradation assays can be carried out by well known techniques, as illustrated above. […] Ubiquitinated protein is then escorted to the 26S proteasome where it undergoes final degradation and the ubiquitin is released and recycled. Once cIAP-1 Antagonists bind to cIAP-1, it results in perturbation of cell survival complexes or dissociation of natural ligands, signaling IAPs to either self ubiquinate or become targets for ubiquitination followed by proteasomal degradation. […] To further elucidate the machinery involved with this phenomenon, we focused on the regulation of IAP stability and asked whether or not the proteasome was involved in the degradation of cIAP-1 and XIAP.

XIAP = target: T2, XIAP (Homo sapiens, UniProt P98170); assay: Effect of proteasome inhibitor on IAP degradation, western blot, XIAP; assay type: cell-based; details: SK-OV-3 cells, 20 hrs, absence of bortezomib
T2 construct: endogenous in cells; host or cells: SK-OV-3
T2 sequence (P98170 whole entry): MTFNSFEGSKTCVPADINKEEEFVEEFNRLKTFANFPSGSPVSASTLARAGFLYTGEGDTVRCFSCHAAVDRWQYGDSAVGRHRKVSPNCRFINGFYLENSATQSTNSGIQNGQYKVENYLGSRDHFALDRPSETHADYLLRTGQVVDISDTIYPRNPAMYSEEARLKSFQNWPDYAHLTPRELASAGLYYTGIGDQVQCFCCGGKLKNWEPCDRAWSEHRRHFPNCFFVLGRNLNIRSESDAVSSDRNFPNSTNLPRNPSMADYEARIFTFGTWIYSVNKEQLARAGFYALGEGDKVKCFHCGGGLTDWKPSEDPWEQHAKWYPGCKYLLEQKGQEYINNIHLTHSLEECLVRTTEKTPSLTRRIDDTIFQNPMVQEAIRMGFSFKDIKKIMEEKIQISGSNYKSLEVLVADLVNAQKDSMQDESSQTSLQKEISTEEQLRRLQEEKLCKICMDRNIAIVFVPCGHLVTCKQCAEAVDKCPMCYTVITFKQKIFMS
Experimental: as §3, §4

SK-OV-3^R cells = assay: MTT assay on IAP Antagonist-resistant SK-OV-3^R cells; assay type: cell-based; details: SK-OV-3^R cells (IAP Antagonist-resistant)
Experimental: (§5) Another unexpected observation we made was with respect to TRAIL sensitivity. IAP Antagonist-resistant […] cells (SK-OV-3^R) were generated by exposing the parental SK-OV-3 cells ([…]) to an IAP antagonist compound at a concentration that kills 95% of cells. Three days later, viable cells were transferred to a fresh flask and grown to confluency. Two weeks later, the cells were tested for IAP Antagonist sensitivity in an MTT assay as describe above and as expected, found these cells to be resistant to IAP Antagonist cytotoxicity.

SK-OV-3^S cells = assay: MTT assay, TRAIL sensitivity of parental SK-OV-3^S cells; assay type: cell-based; details: SK-OV-3^S cells (parental)
Experimental: as §5

[1] = Table 10, read-out: Kd(App), XIAP
[2] = fluorescence polarization, Table 8, read-out: XIAP, Kβ(spp)
[3] = Table 10, read-out: Kd(App), c-IAP-1
[4] = Table 10, read-out: Kd(App), cIAP-2
[5] = fluorescence polarization, Table 8, read-out: cIAP-1, Kd(3pp)
[6] = fluorescence polarization, Table 8, read-out: cIAP-2, Kd(apβ)

Sequence of XIAP-Bir3 (P98170 241-356 limits assumed): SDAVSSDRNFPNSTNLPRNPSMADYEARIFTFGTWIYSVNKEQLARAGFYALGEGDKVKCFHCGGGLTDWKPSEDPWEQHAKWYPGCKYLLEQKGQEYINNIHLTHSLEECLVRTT

Molecule | Kd (XIAP-Bir3; [2]) [nM] | CC50 (SK-OV-3 cells) [µM] | Kd (cIAP-1-Bir3; [5]) [nM] | Kd (cIAP-2-Bir3; [6]) [nM] | other results
CNC(C)C(=O)NC(C(=O)N1CC(OC(C)=O)CC1Cc1c[nH]c2ccccc12)C(C)C (centres unmarked) [Compound H] | 120 | 0.007 |  |  | Kd (XIAP-Bir3; [1]): 117 nM; Kd (cIAP-1-Bir3; [3]): 1 nM; binding to cIAP-1 and cIAP-2 relative to XIAP (fold more tightly) (cIAP-1-Bir3): 117 fold; Kd (cIAP-2-Bir3; [4]): 46 nM; EC50 (SK-OV-3 cells): 7 nM; synergistic toxicity with SN-38, synergistic volume (OVCAR-3 cells): comparable
CC(C)C(NC(=O)CN)C(=O)N1CC(Oc2ccccc2)CC1Cc1coc2ccccc12 (centres unmarked) [D] | 160 | 0.043 | 17 | 33 | 
CNC(C)C(=O)NC(C(=O)N1CCCC1Cc1c(-c2ccc(F)cc2)n(CCOCCOCCOC)c2cc(F)ccc12)C(C)(C)C (centres unmarked) [F] | 820 | 0.079 | 26 | 120 | 
CNC(C)C(=O)NC(C(=O)N1CC(OC(C)=O)CC1Cc1c[nH]c2ccccc12)C(C)O (centres unmarked) [J] | 460 | 0.008 | 53 | 26 | 
CNC(C)C(=O)NC(C(=O)N1CCCC1Cc1c[nH]c2ccc(C)cc12)C(C)O (centres unmarked) [Compound K] | 310 | 0.002 | 8 | 6 | 
CN[C@@H](C)C(=O)N[C@H](C(=O)N1CCC[C@H]1Cc1c(-c2ccc(-c3c(C[C@@H]4CCCN4C(=O)[C@@H](NC(=O)[C@H](C)NC)C(C)(C)C)c4ccc(F)cc4n3CCO)cc2)n(CCO)c2cc(F)ccc12)C(C)(C)C [Q] |  |  |  |  | cIAP-1 protein level by western blot (cIAP-1): complete disappearance; XIAP protein level by western blot (XIAP): complete disappearance
CNC(C)C(=O)NC(C(=O)N1CC(O)CC1Cc1c(-c2ccc(-c3[nH]c4ccccc4c3CC3CC(O)CN3C(=O)C(NC(=O)C(C)NC)C(C)(C)C)cc2)[nH]c2ccccc12)C(C)(C)C (centres unmarked) [N] |  |  |  |  | Kd (XIAP-Bir3; [1]): 1 nM; Kd (cIAP-1-Bir3; [3]): 1 nM; binding to cIAP-1 and cIAP-2 relative to XIAP (fold more tightly) (cIAP-1-Bir3): comparable affinity; Kd (cIAP-2-Bir3; [4]): 6 nM; EC50 (SK-OV-3 cells): 7 nM; synergistic toxicity with SN-38, synergistic volume (OVCAR-3 cells): comparable
CCC(C)[C@H](NC(=O)[C@H](C)NC)C(=O)N1CCC[C@H]1Cc1c2n(c3ccc(F)cc13)CCn1c-2c(C[C@@H]2CCCN2C(=O)[C@@H](NC(=O)[C@H](C)NC)C(C)CC)c2cc(F)ccc21 (some centres unmarked) [A] | 10 | 0.0002 | 0.5 | 14 | 
CNC(C)C(=O)NC(C(=O)N1CCCC1Cc1c(-c2ccc(N3CCOCC3)cc2)n(CCOCCOCCOC)c2cc(F)ccc12)C(C)(C)C (centres unmarked) [G] | 400 | 0.28 | 130 | 180 | 
CNC(C)C(=O)NC(C(=O)N1CCCC1Cc1c(-c2ccc(C(=O)OC)cc2)n(CCOCCOCCOC)c2cc(F)ccc12)C(C)(C)C (centres unmarked) [E] | 90 | 0.046 | 16 | 8 | 
CNC(C)C(=O)NC(C(=O)N1CC(OC(C)=O)CC1Cc1c[nH]c2ccccc12)C(C)(C)C (centres unmarked) [I] | 200 | 0.004 | 72 | 50 | 
TRAIL: tumor necrosis factor-related apoptosis inducing ligand, member of the TNF superfamily that induces apoptosis through death receptors (protein, UniProt P50591 1-281, looked up) Tumor necrosis factor ligand …: MAMMEVQGGPSLGQTCVLIVIFTVLLQSLCVAVTYVYFTNELKQMQDKYSKSGIACFLKEDDSYWDPNDEESMNSPCWQVKWQLRQLVRKMILRTSEETISTVQEKQQNISPLVRERGPQRVAAHITGTRGRSNTLSSPNSKNEKALGRKINSWESSRSGHSFLSNLHLRNGELVIHEKGFYYIYSQTYFRFQEEIKENTKNDKQMVQYIYKYTSYPDPILLMKSARNSCWSKDAEYGLYSIYQGGIFELKENDRIFVSVTNEHLIDMDHEASFFGAFLVG |  |  |  |  | TRAIL sensitivity in MTT assay (SK-OV-3^R cells): sensitive to TRAIL; TRAIL sensitivity in MTT assay (SK-OV-3^S cells): resistant to TRAIL
